These results are taken from publication PMC11134331, “Cell-active small molecule inhibitors validate the SNM1A DNA repair nuclease as a cancer target” (Chemical Science, 2024).

What is called IC50 is the concentration at which inhibition is half-maximal.

In series [1] the target is T1, SNM1A (Homo sapiens, UniProt Q6PJP8).
T1 sequence (Q6PJP8 676-1040): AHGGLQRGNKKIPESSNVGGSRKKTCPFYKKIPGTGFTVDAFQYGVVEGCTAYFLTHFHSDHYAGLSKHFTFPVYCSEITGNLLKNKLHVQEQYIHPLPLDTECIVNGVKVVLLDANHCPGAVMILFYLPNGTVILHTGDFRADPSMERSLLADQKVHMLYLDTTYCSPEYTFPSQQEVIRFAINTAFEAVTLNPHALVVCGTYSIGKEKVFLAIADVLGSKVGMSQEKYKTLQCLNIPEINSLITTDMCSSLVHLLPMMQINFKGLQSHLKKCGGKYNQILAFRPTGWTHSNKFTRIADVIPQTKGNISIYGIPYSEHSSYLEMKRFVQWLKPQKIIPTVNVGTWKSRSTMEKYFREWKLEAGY
Further details: DNA encoding for the MBL and β-CASP domains of SNM1A (aa 676–1040) was cloned into the baculovirus transfer vector pFB-LIC-Bse; inferred from vector pFB-LIC-Bse and the IMAC purification; made in house; host or cells: Sf9 insect cells (baculovirus). The conditions noted are these: cited from earlier work.

Series [2] has as its target T2, SNM1C (Homo sapiens, UniProt Q96SD1).
T2 construct: for the MBL and β-CASP domains of SNM1C (aa 1–362) into the baculovirus expression vector pBF-6HZB; made in house; host or cells: Sf9 insect cells (baculovirus)
The conditions noted are these: cited from earlier work.

Series [3] concerns the target T1, SNM1A. As to the kind of experiment: real-time fluorescence-based nuclease assay, SNM1A. The class given is biochemical. Further details: DNA encoding for the MBL and β-CASP domains of SNM1A (aa 676–1040) was cloned into the baculovirus transfer vector pFB-LIC-Bse; inferred from vector pFB-LIC-Bse and the IMAC purification; made in house; host or cells: Sf9 insect cells (baculovirus). The conditions noted are these: resynthesised compounds. Here is the method: (§1) In brief, the fluorescence-based nuclease assay utilises a chemically modified 20-nucleotide ssDNA substrate with a fluorescein isothiocyanate (FITC) derived 5′-group and an internal black-hole-quencher-1 (BHQ-1), located eight nucleotides distal to the fluorescein group. In the intact substrate the BHQ-1 suppresses fluorescence, however, exonucleolytic digestion of the substrate from the 5′ end by SNM1A uncouples the BHQ-1 and FITC moieties (see Fig. 1D). Spectra were measured every 140 seconds with an increase in fluorescence indicating enzymatic activity by SNM1A (concentration: 0.1 nM).
(§2) Fluorescence-based nuclease digestion SNM1A–C assays were performed as described.[30,45] In the case of SNM1A and SNM1B, a 20-mer oligonucleotide with a 5′ FITC-conjugated-T and an internal BHQ-1 (black hole quencher) conjugated-T, eight nucleotides distal (3′) to the fluor was utilised; whereas for SNM1C a 20-mer oligonucleotide with a 5′ FITC-conjugated-T and a 3′ BHQ-1(black hole quencher) was used to capture all possible endonucleolytic incisions. Reactions (25 μL) were performed in 384 well microplates in nuclease buffer (20 mM HEPES-KOH pH 7.5, 50 mM KCl, 10 mM MgCl2, 0.5 mM TCEP, 0.05% (v/v) Triton-X, 0.1 mg mL^−1 BSA, 5% (v/v) glycerol) with SNM1A/B/C (0.1 nM SNM1A, 0.5 nM SNM1B and 1 nM SNM1C) as indicated. Proteins were incubated for 10 min at RT with the stated compound where applicable, before the reaction was initiated with the addition of 10 nM DNA substrate. […] Fluorescence spectra were measured every 140 s, for 35 min, at 37 °C. The fluorescence intensity of each well was plotted against compound concentration and fitted using a log (inhibitor) response curve using GraphPad Prism software (GraphPad Software, Inc., La Jolla, CA, USA).

Series [4] addresses T2, SNM1C. Put plainly: real-time fluorescence-based nuclease assay, SNM1C. The class given is biochemical. The conditions noted are these: real-time fluorescence-based nuclease assay.
From the text: There is structural similarity between SNM1A, SNM1B, and SNM1C and major mechanistic features are likely conserved between the three nucleases. We therefore tested (13) and other hydroxamic acid analogues for inhibition of SNM1B and SNM1C. […] Note that the substrate utilised for the high-throughput fluorescence based and subsequent SNM1A and SNM1B assays differed slightly for SNM1C reflecting its (primarily) endonucleolytic, rather than exonucleolytic, activity (ESI Fig. 9 ^†).
as §2

The nature of a further series: solubility. The class given is physicochemical.
In a further series the target is T3, SNM1B (Homo sapiens, UniProt Q9H816).
T3 construct: for the MBL and β-CASP domains of SNM1B (aa 1–335) into baculoviral expression vectors pFB-CT10HF-LIC; made in house; host or cells: Sf9 insect cells (baculovirus)
T3 sequence (Q9H816 1-335): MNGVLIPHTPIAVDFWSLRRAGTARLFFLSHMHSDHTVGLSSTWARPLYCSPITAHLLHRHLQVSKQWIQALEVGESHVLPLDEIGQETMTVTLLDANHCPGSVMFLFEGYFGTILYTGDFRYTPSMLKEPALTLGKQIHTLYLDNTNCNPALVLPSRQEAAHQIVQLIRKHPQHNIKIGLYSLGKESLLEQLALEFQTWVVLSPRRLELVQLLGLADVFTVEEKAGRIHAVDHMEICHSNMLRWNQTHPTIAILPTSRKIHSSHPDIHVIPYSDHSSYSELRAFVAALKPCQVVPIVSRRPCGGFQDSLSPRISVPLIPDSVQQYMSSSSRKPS
As to the kind of experiment: real-time fluorescence-based nuclease assay, SNM1B. In kind it is biochemical. On the procedure:
There is structural similarity between SNM1A, SNM1B, and SNM1C and major mechanistic features are likely conserved between the three nucleases. We therefore tested (13) and other hydroxamic acid analogues for inhibition of SNM1B and SNM1C. Due to differences in catalytic turnover between the three enzymes, different concentrations of SNM1B (1 nM) and SNM1C (2.5 nM) were used compared to that for SNM1A (0.5 nM) in the assays. Note that the substrate utilised for the high-throughput fluorescence based and subsequent SNM1A and SNM1B assays differed slightly for SNM1C reflecting its (primarily) endonucleolytic, rather than exonucleolytic, activity (ESI Fig. 9 ^†).
Fluorescence-based nuclease digestion SNM1A–C assays were performed as described.[30,45] […] Fluorescence was measured using a PHERAstar FSX fluorescent plate reader in fluorescent top read mode using excitation at 495 nm, emission at 525 nm, and cutoff at […]. Fluorescence spectra were measured every 140 s, for 35 min, at 37 °C. The fluorescence intensity of each well was plotted against compound concentration and fitted using a log (inhibitor) response curve using GraphPad Prism software (GraphPad Software, Inc., La Jolla, CA, USA).

Series [5] deals with T1, SNM1A. As to the kind of experiment: biochemical. Here is the method: as §1
For series [6], the system named is γH2AX foci in RPE-1 cells. Put plainly: microscopic analysis of damage-induced subnuclear foci, RPE-1 cells. The conditions noted are these: RPE-1, cisplatin treated, without 19. The class given is cell-based, human. Here is the method:
(§3) To assess the number of nuclear foci following cisplatin/inhibitor treatments, cells were plated in glass bottom dishes (as above) and allowed to attach. Following treatment, cells were fixed with 4% (v/v) formaldehyde in PBS, blocked with immunofluoresence (IF) blocking buffer (5% horse serum, 1% saponin in PBS) for 1 h, then incubated with primary antibodies at the desired concentrations in IF blocking buffer (overnight, 4 °C).
Images were imported into ImageJ and foci were counted using a macro adjusting for staining levels between experiments. Anti-γH2AX antibodies were a mouse monoclonal (Millipore; JBW301).

Series [7] relates to γH2AX and EGFP-SNM1A foci in U2OS cells. As to the kind of experiment: microscopic analysis of damage-induced subnuclear foci, U2OS cells expressing EGFP-SNM1A. The conditions noted are these: U2OS, cisplatin treated, without 19. In kind it is cell-based, human. On the procedure:
To this end, cells stably expressing N-terminally EGFP-tagged SNM1A (EGFP-SNM1A) were treated with 50 μM cisplatin alone, 19 (50 μM), or with a combination of both compounds. It is known that on treatment of cells with DNA crosslinking agents, SNM1A forms subnuclear foci that are associated with ongoing sites of DNA repair.[37] […] As previously established, cisplatin treatment efficiently induces co-localisation of EGFP-SNM1A foci and γH2AX foci within 4 hours following treatment, marking sites of cisplatin damage and its repair (Fig. 6C–E). These largely resolved 24 hours post-treatment, again consistent with previous studies.[16,37] Co-treatment of cells with 19 and cisplatin saw a robust induction of SNM1A foci, consistent with the SNM1A activity being dispensable for its localisation to sites of crosslink repair, and γH2AX foci formation (Fig. 6C–E). […] This clear persistence of repair intermediates and trapping of EGFP-SNM1A at the sites of these repair intermediate implies that 19 engages with SNM1A in a cellular context, delaying the completion of cisplatin crosslink repair, which, in turn, results in the sensitisation of cells to cisplatin.
as §3, with “°C). After washing cells three times with PBS, cells were incubated with secondary antibodies for 2–4 hours in IF blocking buffer, washed a further 3 times with PBS then stained with Hoechst 333 258 (1 μg mL^−1 in PBS) for 30 minutes before a further three washes (all washes and incubations were performed at room temperature, unless otherwise stated).” for “°C).”
Confocal images were obtained with a Plan APO 63X 1.40NA oil immersion objective, a pinhole setting of 1 AU, bandpass emission settings of 410–468 nm for Hoechst, 490–544 nm for EGFP, 579–624 nm for RFP or Alexa 568, and 633–695 nm for Alexa 647, a projected pixel dimension of around 110 nm × 110 nm, a pixel dwell time of 1.35 μs, and with a line averaging setting of 2. In order to ensure sufficient cell numbers (N > 300), images were acquired in a tiled 5 × 5 format corresponding to an image area of about 0.65 mm × 0.65 mm. Images were imported into ImageJ and foci were counted using a macro adjusting for staining levels between experiments. Anti-γH2AX antibodies were a mouse monoclonal (Millipore; JBW301).

Where [8] appears, read: real-time fluorescence-based nuclease assay, read-out: SNM1A IC50.

T2 sequence (Q96SD1 1-362): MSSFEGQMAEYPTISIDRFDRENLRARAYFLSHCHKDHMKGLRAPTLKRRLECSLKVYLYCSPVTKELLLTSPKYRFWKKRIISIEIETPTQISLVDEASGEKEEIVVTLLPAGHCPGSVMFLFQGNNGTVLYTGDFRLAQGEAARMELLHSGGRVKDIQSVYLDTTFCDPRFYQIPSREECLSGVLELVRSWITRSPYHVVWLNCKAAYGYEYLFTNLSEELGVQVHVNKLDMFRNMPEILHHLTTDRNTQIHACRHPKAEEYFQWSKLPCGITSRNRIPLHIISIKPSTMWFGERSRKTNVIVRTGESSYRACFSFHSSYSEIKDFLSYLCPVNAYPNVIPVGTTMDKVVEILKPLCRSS

As for `CO/N=C(\C(=O)N[C@@H]1C(=O)N2C(C(=O)O)=C(CSc3nc(=O)c(=O)[nH]n3C)CS[C@H]12)c1csc(N)n1` [compound 5, ceftriaxone], the “inhibition of SNM1A (potency in words)” value on SNM1A [1] was “low μM potency”. The “inhibition of SNM1C (potency in words)” value on SNM1C [2] is “low μM potency”.
Take `COc1ccc2c3c(cccc13)C(=O)N(O)C2=O` [compound 1]: the IC50 stood at 2.4 µM on SNM1A [3] (setting [8]), 370 nM against SNM1C [4] and 1900 nM against SNM1B. The “solubility” value in the series “solubility” is “poor solubility”.
Turning to `C=CCNc1nc(N[C@@H](CC(C)C)C(=O)O)c2cc(Cl)ccc2n1` [compound 6], the IC50 was 129 µM at SNM1A [3] (SNM1A IC50, real-time fluorescence-based nuclease assay); 110 µM on SNM1A [3] (setting [8]); 17.4 µM at SNM1A [5].
On to `N.N.[Cl][Pt][Cl]` [cisplatin, reference compound], for which the “average γH2AX foci count at 24 hours” value in series [6] is on record as 10.4 ± 0.3 foci. The “average number of γH2AX foci at 24 hours” value in series [7] came out at 21.5 ± 0.5 foci.
